Test results as given in patent US8501755B2, “Tetrahydropyridothienopyrimidine compounds and methods of use thereof” (Bayer Intellectual Property GmbH, priority 2006, dated 2013).
pIC50: −log10 of the molar value.

Tests used:
Type in all cases: cell-based
A431 cells = test: In vitro tumor cell proliferation assay (Cell Titer-Glo) in A431 cells; settings: Homo sapiens, A-431, 72 h, A431 human epidermoid carcinoma overexpressing HER1; 72 hours exposure; read-out: IC50, activities in A431 cell lines
Outline: (§1)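 Viability after 72 h drug exposure at 37 °C was read as CellTiter-Glo ATP luminescence, giving IC50. Cells (2.5×10^3/well, RPMI + 10% FBS) were compound-treated one day post-seeding, 0.1% DMSO final: A431 overexpresses HER1, N87 overexpresses HER2 and HER1.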

N87 = test: In vitro tumor cell proliferation assay (Cell Titer-Glo) in N87 cells; settings: N87 human gastric carcinoma overexpressing HER2 and HER1; 72 hours exposure; read-out: IC50, activities in N87 cell lines
Outline: as §1

H1975 cells = test: In vitro tumor cell proliferation assay (Cell Titer-Glo) in H1975 cells; settings: NCI-H1975; H1975 human NSCLC expressing mutant HER1 (L858R,T790M); 72 hours exposure; read-out: IC50, activities in H 1975 cell lines
Outline: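 After 72 h compound exposure at 37° C (top 10 uM down to 64 pM, 0.1% DMSO), viability of EGFR L858R/T790M-mutant H1975 cells was read as ATP luminescence.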

Structure (SMILES)	pIC50 (A431 cells)	pIC50 (N87)	pIC50 (H1975 cells)
O=C(/C=C/CN1CCCCC1)N1CCc2c(sc3ncnc(Nc4ccc5c(ccn5Cc5ccccn5)c4)c23)C1 [Example 114, 7-[(2E)-4-piperidin-1-ylbut-2-enoyl]-N-[1-(pyridin-2-ylmethyl)-1H-indol-5-yl]-5,6,7,8-tetrahydropyrido [4′,3′:4,5]thieno[2,3-d]pyrimidin-4-amine]	> 6.70	> 6.70	> 6.70
C#Cc1cccc(Nc2ncnc3sc4c(c23)CCN(C(=O)/C=C/CN(CC)CC)C4)c1 [Example 16, 7-[(2E)-4-(diethylamino)but-2-enoyl]-N-(3-ethynylphenyl)-5,6,7,8-tetrahydropyrido[4′,3′:4,5]thieno[2,3-d]pyrimidin-4-amine]	> 6.70	> 6.70	6.00 to 6.70
CCOc1cccc(Nc2ncnc3sc4c(c23)CCN(C(=O)/C=C/CN(C)C)C4)c1 [Example 168, 7-[(2E)-4-(dimethylamino)but-2-enoyl]-N-(3-ethoxyphenyl)-5,6,7,8-tetrahydropyrido [4′,3′:4,5]thieno[2,3-d]pyrimidin-4-amine]	5.00 to 6.00	> 6.70	5.00 to 6.00
CN(C/C=C/C(=O)N1CCc2c(sc3ncnc(Nc4ccc5c(cnn5Cc5cccc(F)c5)c4)c23)C1)C(C)(C)C [Example 124, 7-{(2E)-4-[tert-butyl(methyl)amino]but-2-enoyl}-N-[1-(3-fluorobenzyl)-1H-indazol-5-yl]-5,6,7,8-tetrahydropyrido [4′,3′:4,5]thieno[2,3-d]pyrimidin-4-amine]	> 6.70	> 6.70	> 6.70
O=C(/C=C/CN1CCSC1)N1CCc2c(sc3ncnc(Nc4ccc(F)c(Cl)c4)c23)C1 [Example 35, N-(3-chloro-4-fluorophenyl)-7-[(2E)-4-(1,3-thiazolidin-3-yl)but-2-enoyl]-5,6,7,8-tetrahydropyrido [4′3′:4,5]thieno[2,3-d]pyrimidin-4-amine]	5.00 to 6.00	5.30 to 6.70	5.00 to 6.00
CCN(C)C/C=C/C(=O)N1CCc2c(sc3ncnc(Nc4cccc(Br)c4)c23)C1 [Example 186, N-(3-bromophenyl)-7-{(2E)-4-[ethyl(methyl)amino]but-2-enoyl}-5,6,7,8-tetrahydropyrido [4′,3′:4,5]thieno[2,3-d]pyrimidin-4-amine]	6.00 to 6.70	> 6.70	6.00 to 6.70
CN(C)C/C=C/C(=O)N1CCc2c(sc3ncnc(Nc4ccccc4)c23)C1 [Example 161, 7-[(2E)-4-(dimethylamino)but-2-enoyl]-N-phenyl-5,6,7,8-tetrahydropyrido [4′,3′:4,5]thieno[2,3-d]pyrimidin-4-amine]	6.00 to 6.70	> 6.70	6.00 to 6.70
CN(C)C/C=C/C(=O)N1CCc2c(sc3ncnc(Nc4ccc(Br)cc4)c23)C1 [Example 184, N-(4-bromophenyl)-7-[(2E)-4-(dimethylamino)but-2-enoyl]-5,6,7,8-tetrahydropyrido [4′,3′:4,5]thieno[2,3-d]pyrimidin-4-amine.]	6.00 to 6.70	> 6.70	5.00 to 6.00
CN1CCN(C/C=C/C(=O)N2CCc3c(sc4ncnc(Nc5ccc(OCc6cccc(F)c6)c(Cl)c5)c34)C2)CC1 [Example 14, N-{3-chloro-4-[(3-fluorobenzyl)oxy]phenyl}-7-[(2E)-4-(4-methylpiperazin-1-yl)but-2-enoyl]-5,6,7,8-tetrahydropyrido[4′,3′:4,5]thieno[2,3-d]pyrimidin-4-amine]	> 6.70	> 6.70	5.00 to 6.00
C=C(CN(CC)CC)C(=O)N1CCc2c(sc3ncnc(Nc4ccc(F)c(Cl)c4)c23)C1 [Example 147, N-(3-chloro-4-fluorophenyl)-7-{2-[(diethylamino)methyl]acryloyl}-5,6,7,8-tetrahydropyrido [4′,3′:4,5]thieno[2,3-d]pyrimidin-4-amine]	6.00 to 6.70	> 6.70	5.00 to 6.00
CC(C)N(C/C=C/C(=O)N1CCc2c(sc3ncnc(Nc4cccc(Br)c4)c23)C1)C(C)C [Example 208, N-(3-bromophenyl)-7-[(2E)-4-(diisopropylamino)but-2-enoyl]-5,6,7,8-tetrahydropyrido [4′,3:4,5]thieno[2,3-d]pyrimidin-4-amine]	6.00 to 6.70	> 6.70	6.00 to 6.70
Cc1cccc(COc2ccc(Nc3ncnc4sc5c(c34)CCN(C(=O)/C=C/CN3CCCCC3)C5)cc2Cl)n1 [Example 75, N-{3-chloro-4-[(6-methylpyridin-2-yl)methoxy]phenyl}-7-[(2E)-4-piperidin-1-ylbut-2-enoyl]-5,6,7,8-tetrahydropyrido [4′,3′:4,5]thieno[2,3-d]pyrimidin-4-amine]	5.00 to 6.00	> 6.70	6.00 to 6.70
O=C(/C=C/CCO)N1CCc2c(sc3ncnc(Nc4ccc(F)c(Cl)c4)c23)C1 [Example 151, (3E)-5-{4-[(3-chloro-4-fluorophenyl)amino]-5,8-dihydropyrido [4′,3′:4,5]thieno[2,3-d]pyrimidin-7(6H)-yl}-5-oxopent-3-en-1-ol]	5.00 to 6.00	5.30 to 6.70	5.00 to 6.00
CC1CCCN1C/C=C/C(=O)N1CCc2c(sc3ncnc(Nc4cccc(Br)c4)c23)C1 (stereo not drawn) [Example 207, N-(3-bromophenyl)-7-[(2E)-4-(2-methylpyrrolidin-1-yl)but-2-enoyl]-5,6,7,8-tetrahydropyrido [4′,3′:4,5]thieno[2,3-d]pyrimidin-4-amine]	6.00 to 6.70	> 6.70	6.00 to 6.70
O=C(/C=C/CN1CCOCC1)N1CCc2c(sc3ncnc(Nc4ccc(OCc5cccnc5)c(Cl)c4)c23)C1 [Example 89, N-[3-chloro-4-(pyridin-3-ylmethoxy)phenyI]-7-[(2E)-4-morpholin-4-ylbut-2-enoyl]-5,6,7,8-tetrahydropyrido [4′,3′:4,5]thieno[2,3-d]pyrimidin-4-amine]	5.00 to 6.00	> 6.70	6.00 to 6.70
CN1CCC=C(C(=O)N2CCc3c(sc4ncnc(Nc5ccc(F)c(Cl)c5)c34)C2)C1 [Example 29, N-(3-chloro-4-fluorophenyl)-7-[(1-methyl-1,2,5,6-tetrahydropyridin-3-yl)carbonyl]5,6,7,8-tetrahydropyrido [4′,3′:4,5]thieno[2,3-d]pyrimidin-4-amine]	5.00 to 6.00	5.30 to 6.70	5.00 to 6.00
CC(C)N(C)C/C=C/C(=O)N1CCc2c(sc3ncnc(Nc4ccc(OCc5cnccn5)c(Cl)c4)c23)C1 [Example 82, N-[3-chloro-4-(pyrazin-2-ylmethoxy)phenyl]-7-{(2E)-4-[isopropyl(methyl)amino]but-2-enoyl}-5,6,7,8-tetrahydropyrido [4′3′:4,5]thieno[2,3-d]pyrimidin-4-amine]	5.00 to 6.00	> 6.70	6.00 to 6.70
O=C(/C=C/CN(CCO)CCO)N1CCc2c(sc3ncnc(Nc4ccc(OCc5ccccn5)c(Cl)c4)c23)C1 [Example 43, 2,2′-({(2E)-4-[4-{[3-chloro-4-(pyridin-2-ylmethoxy)phenyl]amino}-5,8-dihydropyrido [4′,3′:4,5]thieno[2,3-d]pyrimidin-7(6H)-yl]-4-oxobut-2-en-1-yl}imino)diethanol]	5.00 to 6.00	> 6.70	5.00 to 6.00
C=C(CN(CC)CC)C(=O)N1CCc2c(sc3ncnc(Nc4ccc(OCc5cccc(F)c5)c(Cl)c4)c23)C1 [Example 149, N-{3-chloro-4-[(3-fluorobenzyl)oxy]phenyl}-7-{2-[(diethylamino)methyl]acryloyl}-5,6,7,8-tetrahydropyrido [4′,3′:4,5]thieno[2,3-d]pyrimidin-4-amine]	6.00 to 6.70	> 6.70	6.00 to 6.70
O=C(/C=C/CN1CCOCC1)N1CCc2c(sc3ncnc(Nc4ccc5c(cnn5Cc5ccccn5)c4)c23)C1 [Example 113, 7-[(2E)-4-morpholin-4-ylbut-2-enoyl]-N-[1-(pyridin-2-ylmethyl)-1H-indazol-5-yl]-5,6,7,8-tetrahydropyrido [4′,3′:4,5]thieno[2,3-d]pyrimidin-4-amine]	6.00 to 6.70	> 6.70	6.00 to 6.70
O=C(/C=C/CN1CCCCC1)N1CCc2c(sc3ncnc(Nc4ccc(OCc5ccccn5)c(Cl)c4)c23)C1 [Example 4, N-[3-chloro-4-(pyridin-2-ylmethoxy)phenyl]-7-[(2E)-4-piperidin-1-ylbut-2-enoyl]-5,6,7,8-tetrahydropyrido[4′,3′:4,5]thieno[2,3-d]pyrimidin-4-amine]	> 6.70	> 6.70	6.00 to 6.70
CC(C)N(C/C=C/C(=O)N1CCc2c(sc3ncnc(Nc4ccc(Cl)c(Cl)c4)c23)C1)C(C)C [Example 209, N-(3,4-dichlorophenyl)-7-[(2E)-4-(diisopropylamino)but-2-enoyl]-5,6,7,8-tetrahydropyrido [4′,3′:4,5]thieno[2,3-d]pyrimidin-4-amine]	6.00 to 6.70	> 6.70	6.00 to 6.70
Cc1cc(Nc2ncnc3sc4c(c23)CCN(C(=O)/C=C/CN(C)C)C4)ccc1F [Example 182, 7-[(2E)-4-(dimethylamino)but-2-enoyl]-N-(4-fluoro-3-methylphenyl)-5,6,7,8-tetrahydropyrido [4′,3′:4,5]thieno[2,3-d]pyrimidin-4-amine]	6.00 to 6.70	> 6.70	5.00 to 6.00
CN1CCC=C(C(=O)N2CCc3c(sc4ncnc(Nc5ccc(OCc6ccccn6)c(Cl)c5)c34)C2)C1 [Example 30, N-[3-chloro-4-(pyridin-2-ylmethoxy)phenyl]-7-[(1-methyl-1,2,5,6-tetrahydropyridin-3-yl)carbonyl]-5,6,7,8-tetrahydropyrido [4′,3′:4,5]thieno[2,3-d]pyrimidin-4-amine]	5.00 to 6.00	5.30 to 6.70	5.00 to 6.00
